Assays:
p38α = p38α (Homo sapiens, UniProt Q16539); details: cited from earlier work
HRGECs / neutrophils [1] = assay: Neutrophil migration to conditioned media of SLE serum-treated HRGECs, by dose of the patients' medication; type: cell-based, human; details: serum of SLE patients on differing doses
Description: HRGECs were plated at 4×10^4 cells per well of a 48-well fibronectin-coated plate in complete growth media at 37° C. with 5% CO2. On confluence, cells were washed three times in ECM. Cells were then cultured with 10% serum (SLE or control) in ECM for 3 hours and then washed three times in ECM. Cells were serum starved overnight in ECM. The resulting conditioned media (CM) was then collected and passed through a 0.2 μm pore membrane to remove any cellular debris and frozen at −80° C. for later use.
Transwell membrane chambers with 3 μm pores from a 96-well Migration Plate (Corning, Corning, N.Y., USA) were equilibrated in RPMI for 1 hour at 37° C. Then RPMI was removed. CM or negative (CM from serum-free treatment)/positive (10^−7 M interleukin (IL)-8 (R&D Systems, Minneapolis, Minn., USA)) controls were added to the 96-well black-walled receiver wells (Corning); 1.5×10^5 neutrophils in ECM were then added to the upper chamber of each insert and incubated for 1 hour to allow for neutrophil migration toward the conditioned medium. Cells that migrated through the membrane into the CM were then labelled with Calcein AM and incubated for 1 hour at 37° C. as described above. Fluorescence intensity was then measured from the bottom of the plate at 485 nm excitation, 520 nm emission using a fluorescence microplate reader (Biotek HT Synergy). A standard curve of Calcein AM-labelled neutrophils (using 1.5×10^5, 1.0×10^5, 5.0×10^4, 2.5×10^4, 1.25×10^4, 0.625×10^4 and 0 neutrophils) was created and fluorescence intensity was quantified on the microplate reader. The linear equation was then calculated and fluorescence intensity of samples could then be input into the linear equation to determine neutrophil cell number. The fluorescence intensity of migrated neutrophils in the lower chamber was measured as described (Jones Buie et al., Lupus Sci Med 2019; 6:e000294). All values were normalized to untreated controls.

HRGECs / neutrophils [2] = assay: Neutrophil adhesion to SLE serum-treated HRGECs, by dose of the patients' medication; type: cell-based, human; details: serum of SLE patients on differing doses
Description: HRGECs were cultured in 48 well fibronectin-coated plates at 80 000 cells per well in complete growth media until confluent. HRGECs were washed, serum starved for 1 hour in ECM supplemented with 0.5% FBS, washed again. Treatments consisting of ECM only, 2.5% serum (lupus or control) in ECM or 100 ng/mL TNF-alpha (Thermo Fisher Scientific) (positive control) in ECM were added to the HRGECs, and cells underwent incubation for 3 hours at 37° C. HRGECs were then washed three times with RPMI-1640 (without phenol red); 6×10^5 Calcein AM-labelled neutrophils were added to each well of the treated HRGECs. Cells were incubated for 20 min at 37° C. and washed five times with PBS (without Ca^2+/Mg^2+). Fluorescence intensity was quantified before the first wash and after the fifth wash to determine percent cell adherence, with all values then normalized to untreated controls. Fluorescence intensity was measured from the top of the plate at 485 nm excitation, 520 nm emission using a fluorescence microplate reader (Biotek HT Synergy).

p38α and p38β2 = details: cited from earlier work
iNOS = iNOS (Mus musculus, UniProt P29477); details: cited from earlier work
Sequence of iNOS (P29477 whole entry): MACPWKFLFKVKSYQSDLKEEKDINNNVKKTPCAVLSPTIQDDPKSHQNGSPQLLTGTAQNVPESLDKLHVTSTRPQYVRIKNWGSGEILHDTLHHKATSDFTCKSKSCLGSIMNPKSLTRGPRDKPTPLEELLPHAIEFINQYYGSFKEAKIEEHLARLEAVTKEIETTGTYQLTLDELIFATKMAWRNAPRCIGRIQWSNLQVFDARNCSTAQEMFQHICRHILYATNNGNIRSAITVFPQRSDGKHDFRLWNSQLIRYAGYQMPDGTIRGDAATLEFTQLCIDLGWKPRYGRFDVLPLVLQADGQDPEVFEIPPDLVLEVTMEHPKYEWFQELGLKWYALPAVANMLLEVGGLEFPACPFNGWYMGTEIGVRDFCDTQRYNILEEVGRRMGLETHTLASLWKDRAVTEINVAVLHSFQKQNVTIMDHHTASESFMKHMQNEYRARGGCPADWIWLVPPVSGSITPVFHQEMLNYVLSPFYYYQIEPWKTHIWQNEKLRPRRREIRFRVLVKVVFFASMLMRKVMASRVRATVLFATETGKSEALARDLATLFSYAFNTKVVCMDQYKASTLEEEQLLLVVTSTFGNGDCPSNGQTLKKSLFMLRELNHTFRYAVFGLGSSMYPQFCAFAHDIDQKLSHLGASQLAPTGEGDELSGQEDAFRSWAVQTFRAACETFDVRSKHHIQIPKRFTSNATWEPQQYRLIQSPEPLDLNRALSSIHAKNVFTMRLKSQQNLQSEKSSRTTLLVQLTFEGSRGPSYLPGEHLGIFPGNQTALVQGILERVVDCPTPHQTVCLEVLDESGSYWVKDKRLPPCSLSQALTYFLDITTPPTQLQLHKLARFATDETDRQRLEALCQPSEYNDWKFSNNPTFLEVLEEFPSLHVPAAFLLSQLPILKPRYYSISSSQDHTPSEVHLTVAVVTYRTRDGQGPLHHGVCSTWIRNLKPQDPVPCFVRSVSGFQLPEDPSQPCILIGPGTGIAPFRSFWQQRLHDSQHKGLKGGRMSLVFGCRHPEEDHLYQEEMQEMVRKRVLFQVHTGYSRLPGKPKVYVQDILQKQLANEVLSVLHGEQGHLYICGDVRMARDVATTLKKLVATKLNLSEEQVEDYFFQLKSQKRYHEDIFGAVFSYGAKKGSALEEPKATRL

HUVECs / neutrophils = assay: Neutrophil adhesion assay on HUVECs; type: cell-based, human
Description: HUVECs were plated at 5.0×10^4 cells/mL in a 24-well plate (Costar) and allowed to adhere overnight. HUVECs were serum starved for 3 hours in phenol-red free 0.2% FBS EBM media (Lonza) prior to activation with 10% sera for 4 hours. Tumor necrosis factor-α (100 ng/mL) was used as the positive control. Neutrophils isolated from healthy human blood as outlined previously were labelled with Calcein AM (Life Technologies) at 5×10^5 cells/mL. Neutrophils were washed gently four times in warm serum-free EBM culture media prior to co-culturing with HUVECs for 60 min after which non-adherent cells were removed by repeated gentle washing (four times) with EBM culture media. Fluorescence intensity was measured at 520 nM with a FLUOStar Omega microplate reader (Cary, N.C., USA), and images were captured using confocal microscopy. Data are reported as ratios of the number of neutrophils to the number of endothelial cells as averages from three different visual fields.

[3] = system: human renal glomerular endothelial cells (HRGEC); assay: NO production (DAF-FM with urate) by HRGEC treated with LN serum; type: cell-based; details: urate added, 5 μM L-Sepiapterin, 25 μM VAS2870
Description: The inflammatory phenotype of HUVECs differs from microvascular endothelial cells and may not reflect mechanisms in glomerular endothelial cells. To confirm the uncoupling effects lead to functional changes in uncoupling and NO production by EC treated with LN serum in HRGEC, HRGEC as in FIG. 10 was treated with LN serum in a black walled 96-well plate. […] NO production was quantified using DAF-FM fluorescence with urate added to prevent ONOO— fluorescence. […] While not wishing to be bound to any particular theory, one possible explanation for this finding is that uncoupled NOS is a significant source of ROS in LN (Njoku, C. J. et al., 2005, J. Investig. Med., 53:347-52).
HRGECs are plated at 3×10^4 cells per well in a 96-well black-walled plate and cultured in complete growth media at 37° C. in a humidified atmosphere with 5% CO2. Upon confluence, complete growth medium is removed, and cells washed in ECM-prf (phenol red free). Cells are incubated with 2 μM DAF-FM Diacetate for 60 minutes at 37° C., then cells washed in ECM-prf. […] 0.6 mM DPTA NONOate (Abcam) is a positive control, while L-NAME (100 μM) is a negative control. […] Plates are incubated for 30 minutes at 37° C. and read at 485/528 excitation/emission on a microplate reader (BioTek HT Synergy). […]

intracellular BH4 = details: compared with exogenous BH4 (Crabtree 2011); cited from earlier work
[4] = system: human umbilical vein endothelial cells (HUVECs); assay: Measurement of nitric oxide production (DAF-FM fluorescence, flow cytometry) in serum-cultured HUVECs; type: cell-based; details: for DAF-FM MFI, a marker of NO production: L-sep 5 μM 6 hours
Description: Primary human umbilical vein endothelial cells from pooled donors were purchased from Lonza (Walkersville, Md., USA) and cultured according to the manufacturer's instructions in 5% CO2 at 37° C. in humidified air. Cells were cultured in endothelial cell basal medium-2 (EBM-2) supplemented with EBM-2 SingleQuot (Lonza), pH 7.6-8.0. Media was changed every other day until cells were 70%-80% confluent. HUVECs were sub-cultured using TryPLE Express, pH 8.0 (ThermoFisher Scientific, Waltham, Mass., USA). Cell growth was limited to 12 population doublings, and all experiments were carried out using cells between passages 3-5. For serum experiments, cells were cultured with 20%-50% serum for 6 or 24 hours prior to further analysis.
For real-time detection of NO production in HUVECs, 1.2×10^5 cells were seeded in a 12-well tissue culture plate. Following adherence, cells were serum starved for 6 hours in endothelial basal media (EBM) containing 0.2% fetal bovine serum (FBS). Cells were stimulated with either 50% healthy or SLE sera±L-sep (5 μM; 6 hours), the eNOS-specific inhibitor, Nω-Nitro-L-arginine (L-NNA, 10 μM; 30 min pre-incubation (Tocris; Bristol, UK)) or the NO donor 3,3′-diamino-4′-methoxyflavone (DD1, 10 μM, Tocris). Following stimulation, cells were washed twice with phosphate buffered saline (PBS) and loaded with 1 μM DAF-FM diacetate (4-amino-5-methylamino-2′,7′-difluorofluorescein diacetate, 1 μM) (ThermoFisher Scientific) in phenol red-free EBM for 30-45 min. […] A population of 2000-10 000 cells were gated to remove doublets and controls and analyzed based on their fluorescence intensities using a FACS Calibur flow cytometer (Becton Dickenson, San Diego, USA). The mean fluorescence intensity (MFI) was normalized to respective populations in unstimulated cells. In order to discriminate between NO and other gaseous molecules previously shown to augment DAF-FM fluorescence, a urate assay was performed to optimize the assay (data not shown).

[5] = system: BALB/c mice with Angiotensin II minipumps; assay: Systolic blood pressure in Angiotensin II minipump hypertension; type: in vivo
Description: Hypertension was created in some BALB/c mice with Angiotensin II minipumps. Mice were treated half with CSNA-001 (L-sep) 8 days after the pumps were placed and baseline SBP checked. The decrease in systolic BP was significant in the treated mice but not the untreated (FIG. 21 and FIG. 22).

[6] = system: C57B6/J mice with angiotensin II minipump; assay: Tail cuff blood pressure response to acetylcholine, angiotensin II model of hypertension; type: in vivo; details: 10 mg/kg/d by gavage vs vehicle
Description: To determine the effect of sepiapterin in a mouse model of hypertension, C57B6/J mice were implanted with an angiotensin II minipump for 2 weeks to induce hypertension. The animals were then treated with either sepiapterin 10 mg/kg/d by gavage or vehicle. A tail cuff measure of blood pressure was taken followed by injection of acetylcholine and a second tail cuff measure of blood pressure.

[7] = system: humans with phenylketonuria and tetrahydrobiopterin deficiencies; details: humans with phenylketonuria and tetrahydrobiopterin deficiencies (Smith 2019); cited from earlier work
TLR 7/9 = details: cited from earlier work

Sequence of p38α (Q16539 whole entry): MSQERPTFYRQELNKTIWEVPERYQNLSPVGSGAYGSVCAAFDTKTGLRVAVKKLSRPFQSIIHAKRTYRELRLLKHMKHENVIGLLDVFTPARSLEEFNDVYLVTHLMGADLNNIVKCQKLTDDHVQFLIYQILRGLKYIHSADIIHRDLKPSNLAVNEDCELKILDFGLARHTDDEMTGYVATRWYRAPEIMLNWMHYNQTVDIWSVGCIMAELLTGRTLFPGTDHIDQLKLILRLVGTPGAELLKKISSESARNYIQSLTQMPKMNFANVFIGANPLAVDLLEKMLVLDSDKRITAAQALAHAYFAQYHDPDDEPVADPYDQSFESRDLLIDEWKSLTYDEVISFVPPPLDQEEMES

Cc1c(F)cc(C(=O)NC2CC2)cc1-c1c(F)cn2c(C(C)(C)C)nnc2c1F [AL 8697]
IC50 (p38α): 0.006 µM

COc1c(C)c2c(c(O)c1C/C=C(\C)CCC(=O)OCCN1CCOCC1)C(=O)OC2 [CellCept, mycophenolate mofetil]
neutrophil migration, dosing effects of medication (HRGECs / neutrophils [1]): No difference
neutrophil adhesion, dosing effects of medication (HRGECs / neutrophils [2]): No difference

Cc1ccccc1C(=O)c1ccc(Nc2ccc(Br)cc2N)cc1Cl [EO1428]
IC50 (p38α and p38β2): 0.074 µM

CC(=N)NCCCC[C@H](N)C(=O)O [L-NIL]
IC50 (iNOS): 3.3 µM

CC(O)C(=O)C1=Nc2c([nH]c(N)nc2=O)NC1 [L-sepiapterin, 2-amino-6-[-2-hydroxypropanoyl]-7,8-dihydro-1H-pteridin-4-one]
neutrophil adhesion induced by SLE serum (HUVECs / neutrophils; SLE serum cultured HUVECs): did not reverse neutrophil adhesion
neutrophil adhesion (HUVECs / neutrophils; cells cultured in EBM-2 media, p<0.05): reversed neutrophil adhesion
NO production (DAF-FM fluorescence) [3]: increased more
intracellular BH4 levels (intracellular BH4): more effectively than exogenous BH4
DAF-FM MFI, a marker of NO production ([4]; SLE serum cultured HUVECs, 50% serum, vs SLE cultured cells without L-sepiapterin, p<0.01): significantly increased
DAF-FM MFI, a marker of NO production ([4]; control serum cultured HUVECs): not observed
ratio in MFI-fold change between SLE serum+L-sepiapterin and SLE serum ([4]; vs ratios in control and healthy serum culture conditions, p<0.001 and <0.01): significantly different
decrease in systolic BP ([5]; treated mice, 20 mg/kg daily, Day 7 to Day 14, cuff pressure): significant
mean blood pressure responses to acetyl choline ([5]; treated vs untreated mice): significant differences
differences in reduction of systolic blood pressure ([5]; treated vs untreated mice, 20 mg/kg daily): about 8 mmHg
endothelial function (difference in tail cuff pressure after acetylcholine) [6]: improves endothelial function
safety profile [7]: favorable

NCCCC[C@H](N[C@@H](CCc1ccccc1)C(=O)O)C(=O)N1CCC[C@H]1C(=O)O [Lisinopril]
neutrophil migration, dosing effects of medication (HRGECs / neutrophils [1]): No difference
neutrophil adhesion, dosing effects of medication (HRGECs / neutrophils [2]): No difference

C[C@]12C=CC(=O)C=C1CC[C@@H]1[C@@H]2C(=O)C[C@@]2(C)[C@H]1CC[C@]2(O)C(=O)CO [Prednisone, prednisone]
neutrophil migration, dosing effects of medication (HRGECs / neutrophils [1]): No difference
neutrophil adhesion, dosing effects of medication (HRGECs / neutrophils [2]): No difference

c1ccc(Cn2nnc3c(Sc4nc5ccccc5o4)ncnc32)cc1 [VAS2870, reference compound]
NO production (DAF-FM fluorescence) [3]: not effective

CCN(CCO)CCCC(C)Nc1ccnc2cc(Cl)ccc12 (stereo not shown) [hydroxychloroquine]
neutrophil migration, dosing effects of medication (HRGECs / neutrophils [1]): No difference
neutrophil adhesion, dosing effects of medication (HRGECs / neutrophils [2]): No difference
IC50 (TLR 7/9): ~4 µM

Source: patent US20230077104A1, “L-SEPIAPTERIN AND METHODS OF USE FOR TREATING DISEASES AND DISORDERS” (THE UNITED STATES GOVERNMENT AS REPRESENTED BY THE …, priority 2020, published 2023)
